Values of other authors as cited in patent US12640239B2, “Functional biomarkers for statin therapy in age-related macular degeneration (AMD)” (APELIOTUS TECHNOLOGIES, INC., priority 2017, dated 2026).

Test system: older adults with normal retinal health or AMD
Conditions: 30-day course of 50,000 international units of oral retinol, cited from earlier work

CC1=C(/C=C/C(C)=C/C=C/C(C)=C/CO)C(C)(C)CCC1 [retinol]
Dark adaptation vs placebo group (30-day follow-up, 52 per group): significantly faster dark adaptation than the placebo group | Visual acuity vs placebo group (30-day follow-up): no difference in visual acuity between the groups | Improvement in dark adaptation after washout (after an additional 30-day washout period): reversed to the baseline level
